Source: ChEMBL document CHEMBL3885861, “Open TG-GATES”

Species on record: Rattus norvegicus
Assay: Open TG-GATES - Regimen: Single
Type: toxicity, organism-based, Sprague-Dawley
Parameters: regimen Single, gender Male, age 6 weeks
Settings: in vivo, sc, 0.02 mg/kg, route subcutaneous injection, dose 20 ug/Kg, dose level Low; for APTT / Bas / Eos / Fbg / Hb / Ht / Lym / MCH / MCHC / MCV / Mono / Neu / PT / Plat / RBC / Ret / WBC: tissue Blood; for KIDNEY_L / KIDNEY_R / KIDNEY_TOTAL: tissue Kidney; for LIVER: tissue Liver; for A/G / ALP / ALT / AST / BUN / CRE / Ca / Cl / DBIL / GLC / IP / K / LDH / Na / PL / RALB / TBIL / TC / TG / TP / gamma-GTP: tissue Plasma

CC(=O)O.N=C(N)NCCC[C@@H](NC(=O)[C@@H]1CCCN1C(=O)[C@@H]1CSSCCC(=O)N[C@@H](Cc2ccc(O)cc2)C(=O)N[C@@H](Cc2ccccc2)C(=O)N[C@@H](CCC(N)=O)C(=O)N[C@@H](CC(N)=O)C(=O)N1)C(=O)NCC(N)=O [DESMOPRESSIN ACETATE]
TERMINAL_BW (3 h): 210.4 g
APTT (3 h): 17.8 s
Bas (3 h): 0%
Eos (3 h): 1%
Fbg (3 h): 236 mg/dL
Hb (3 h): 12.9 g/dL
Ht (3 h): 39.5%
Lym (3 h): 71.4%
MCH (3 h): 22.1 pg
MCHC (3 h): 32.7%
MCV (3 h): 67.5 fL
Mono (3 h): 8.6%
Neu (3 h): 18.6%
PT (3 h): 12.3 s
Plat (3 h): 120.4 x10_4/uL
RBC (3 h): 586 x10_4/ul
Ret (3 h): 9.1%
WBC (3 h): 90.2 x10_2/uL
KIDNEY_L (3 h): 1 g
KIDNEY_R (3 h): 1 g
KIDNEY_TOTAL (3 h): 1.9 g
LIVER (3 h): 10 g
A/G (3 h): 2
ALP (3 h): 1379 IU/L
ALT (3 h): 39.2 IU/L
AST (3 h): 68.8 IU/L
BUN (3 h): 21.2 mg/dL
CRE (3 h): 0.3 mg/dL
Ca (3 h): 11.1 mg/dL
Cl (3 h): 102.8 meq/L
DBIL (3 h): 0.01 mg/dL
GLC (3 h): 194.4 mg/dL
IP (3 h): 9.9 mg/dL
K (3 h): 4.5 meq/L
LDH (3 h): 123.8 IU/L
Na (3 h): 135.4 meq/L
PL (3 h): 142 mg/dL
RALB (3 h): 3.6 g/dL
TBIL (3 h): 0.05 mg/dL
TC (3 h): 81.8 mg/dL
TG (3 h): 64.4 mg/dL
TP (3 h): 5.4 g/dL
gamma-GTP (3 h): 1 IU/L
TERMINAL_BW (6 h): 202.1 g
APTT (6 h): 17.3 s
Bas (6 h): 0%
Eos (6 h): 1%
Fbg (6 h): 232.8 mg/dL
Hb (6 h): 12.9 g/dL
Ht (6 h): 39.6%
Lym (6 h): 77.8%
MCH (6 h): 21.5 pg
MCHC (6 h): 32.6%
MCV (6 h): 66.1 fL
Mono (6 h): 8%
Neu (6 h): 13.2%
PT (6 h): 12.7 s
Plat (6 h): 116.8 x10_4/uL
RBC (6 h): 598.6 x10_4/ul
Ret (6 h): 9.1%
WBC (6 h): 105.6 x10_2/uL
KIDNEY_L (6 h): 1 g
KIDNEY_R (6 h): 1 g
KIDNEY_TOTAL (6 h): 2 g
LIVER (6 h): 9.1 g
A/G (6 h): 1.9
ALP (6 h): 1160 IU/L
ALT (6 h): 31.2 IU/L
AST (6 h): 60 IU/L
BUN (6 h): 25.4 mg/dL
CRE (6 h): 0.3 mg/dL
Ca (6 h): 10.8 mg/dL
Cl (6 h): 103.6 meq/L
DBIL (6 h): 0.014 mg/dL
GLC (6 h): 199 mg/dL
IP (6 h): 9.6 mg/dL
K (6 h): 4.8 meq/L
LDH (6 h): 109.4 IU/L
Na (6 h): 135 meq/L
PL (6 h): 142.8 mg/dL
RALB (6 h): 3.5 g/dL
TBIL (6 h): 0.074 mg/dL
TC (6 h): 85 mg/dL
TG (6 h): 62.4 mg/dL
TP (6 h): 5.3 g/dL
gamma-GTP (6 h): 1 IU/L
TERMINAL_BW (9 h): 202.1 g
APTT (9 h): 16.9 s
Bas (9 h): 0%
Eos (9 h): 1.4%
Fbg (9 h): 229 mg/dL
Hb (9 h): 13 g/dL
Ht (9 h): 40.1%
Lym (9 h): 72%
MCH (9 h): 21.8 pg
MCHC (9 h): 32.6%
MCV (9 h): 67.1 fL
Mono (9 h): 8.4%
Neu (9 h): 18.4%
PT (9 h): 12.8 s
Plat (9 h): 118 x10_4/uL
RBC (9 h): 598.2 x10_4/ul
Ret (9 h): 9.3%
WBC (9 h): 94.6 x10_2/uL
KIDNEY_L (9 h): 1 g
KIDNEY_R (9 h): 0.9 g
KIDNEY_TOTAL (9 h): 1.9 g
LIVER (9 h): 8.7 g
A/G (9 h): 2.2
ALP (9 h): 1148.8 IU/L
ALT (9 h): 32.2 IU/L
AST (9 h): 62.6 IU/L
BUN (9 h): 24.4 mg/dL
CRE (9 h): 0.3 mg/dL
Ca (9 h): 11 mg/dL
Cl (9 h): 103.8 meq/L
DBIL (9 h): 0.016 mg/dL
GLC (9 h): 198.4 mg/dL
IP (9 h): 10.6 mg/dL
K (9 h): 5.1 meq/L
LDH (9 h): 143.8 IU/L
Na (9 h): 136.4 meq/L
PL (9 h): 136.6 mg/dL
RALB (9 h): 3.6 g/dL
TBIL (9 h): 0.056 mg/dL
TC (9 h): 78.2 mg/dL
TG (9 h): 47.6 mg/dL
TP (9 h): 5.3 g/dL
gamma-GTP (9 h): 0.4 IU/L
TERMINAL_BW (24 h): 220.6 g
APTT (24 h): 16.9 s
Bas (24 h): 0%
Eos (24 h): 1%
Fbg (24 h): 245.2 mg/dL
Hb (24 h): 12.8 g/dL
Ht (24 h): 39.6%
Lym (24 h): 74%
MCH (24 h): 21.3 pg
MCHC (24 h): 32.4%
MCV (24 h): 65.9 fL
Mono (24 h): 7.8%
Neu (24 h): 17.2%
PT (24 h): 12.1 s
Plat (24 h): 134.8 x10_4/uL
RBC (24 h): 601 x10_4/ul
Ret (24 h): 10.2%
WBC (24 h): 109.6 x10_2/uL
KIDNEY_L (24 h): 1 g
KIDNEY_R (24 h): 1 g
KIDNEY_TOTAL (24 h): 1.9 g
LIVER (24 h): 10.3 g
A/G (24 h): 2
ALP (24 h): 1595.4 IU/L
ALT (24 h): 35 IU/L
AST (24 h): 63.8 IU/L
BUN (24 h): 15 mg/dL
CRE (24 h): 0.4 mg/dL
Ca (24 h): 11.3 mg/dL
Cl (24 h): 104.8 meq/L
DBIL (24 h): 0 mg/dL
GLC (24 h): 193.2 mg/dL
IP (24 h): 7.8 mg/dL
K (24 h): 5.2 meq/L
LDH (24 h): 137 IU/L
Na (24 h): 137.8 meq/L
PL (24 h): 152.8 mg/dL
RALB (24 h): 3.7 g/dL
TBIL (24 h): 0.022 mg/dL
TC (24 h): 83.8 mg/dL
TG (24 h): 98.6 mg/dL
TP (24 h): 5.5 g/dL
gamma-GTP (24 h): 1.2 IU/L
